Measurements published in patent US20230365561A1, “BETA-LACTAMASE INHIBITORS AND THEIR PREPARATION” (NINGXIA ACADEMY OF AGRICUL TURE AND FORESTRY SCIENCES, priority 2020, published 2023).
Where a name gives a salt, the structure may show the parent alone.

What was measured:
Type in all cases: cell-based
[1] = test system: E. cloacae clinical isolate (strain 5); assay: MIC by broth microdilution (alone and in combination with meropenam), strain 5; conditions: Enterobacter cloacae, compound alone, read-out: MIC, antibacterial activity of example alone
How it was run: (§1)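 Susceptibility follows CLSI M7-A8 microdilution with final DMSO below 0.5%. For combinations, test compound stays at 4 µg/mL while meropenem is titrated two-fold from 0.125 to 64 mg/L.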

[2] = test system: P. aeruginosa 9027 (strain 10); assay: MIC by broth microdilution (alone and in combination with meropenam), strain 10; conditions: Pseudomonas aeruginosa, compound alone, read-out: MIC, antibacterial activity of example alone
How it was run: as §1

[3] = test system: E. coli 8739 (strain 2); assay: MIC by broth microdilution (alone and in combination with meropenam), strain 2; conditions: Escherichia coli, compound alone, read-out: MIC, antibacterial activity of example alone
How it was run: as §1

[4] = test system: P. aeruginosa clinical isolate (strain 9); assay: MIC by broth microdilution (alone and in combination with meropenam), strain 9; conditions: Pseudomonas aeruginosa, compound alone, read-out: MIC, antibacterial activity of example alone
How it was run: as §1

[5] = test system: K. pneumoniae 700603 (strain 4); assay: MIC by broth microdilution (alone and in combination with meropenam), strain 4; conditions: Klebsiella pneumoniae, compound alone, read-out: MIC, antibacterial activity of example alone
How it was run: as §1

[6] = test system: A. baumannii 19606 (strain 8); assay: MIC by broth microdilution (alone and in combination with meropenam), strain 8; conditions: Acinetobacter baumannii, compound alone, read-out: MIC, antibacterial activity of example alone
How it was run: as §1

[7] = test system: E. cloacae 700323 (strain 6); assay: MIC by broth microdilution (alone and in combination with meropenam), strain 6; conditions: Enterobacter cloacae, compound alone, read-out: MIC, antibacterial activity of example alone
How it was run: as §1

[8] = test system: E. coli clinical isolate (strain 1); assay: MIC by broth microdilution (alone and in combination with meropenam), strain 1; conditions: Escherichia coli, compound alone, read-out: MIC, antibacterial activity of example alone
How it was run: as §1

[9] = test system: A. baumannii clinical isolate (strain 7); assay: MIC by broth microdilution (alone and in combination with meropenam), strain 7; conditions: Acinetobacter baumannii, compound alone, read-out: MIC, antibacterial activity of example alone
How it was run: as §1

[10] = test system: K. pneumoniae clinical isolate (strain 3); assay: MIC by broth microdilution (alone and in combination with meropenam), strain 3; conditions: Klebsiella pneumoniae, compound alone, read-out: MIC, antibacterial activity of example alone
How it was run: as §1

Measured: MIC

N=C(NC(=O)c1nccs1)[C@@H]1CC[C@@H]2CN1C(=O)N2OS(=O)(=O)[O-].[Na+] [Ex.23, Sodium (2S,5R)-7-oxo-2-(N-(thiazole-2-carbonyl)carbamimidoyl)-1,6-diazabicyclo[3.2.1]octan-6-yl Sulfate]
> 64 µg/mL: all assays above

N=C(NC(=O)c1cocn1)[C@@H]1CC[C@@H]2CN1C(=O)N2OS(=O)(=O)[O-].[Na+] [Ex.20, Sodium (2S,5R)-2-(N-(oxazole-4-carbonyl)carbamimidoyl)-7-oxo-1,6-diazabicyclo[3.2.1]octan-6-yl Sulfate]
> 64 µg/mL: all assays above

N=C(NC(=O)Cc1cccnc1)[C@@H]1CC[C@@H]2CN1C(=O)N2OS(=O)(=O)[O-].[Na+] [Ex.34, Sodium (2S,5R)-7-oxo-2-(N-(2-(pyridin-3-yl)acetyl)carbamimidoyl)-1,6-diazabicyclo[3.2.1]octan-6-yl sulfate]
> 64 µg/mL: all assays above

N=C(NC(=O)c1nc(N)cs1)[C@@H]1CC[C@@H]2CN1C(=O)N2OS(=O)(=O)[O-].[Na+] [Ex.22, Sodium (2S,5R)-2-(N-(4-aminothiazole-2-carbonyl)carbamimidoyl)-7-oxo-1,6-diazabicyclo[3.2.1]octan-6-yl Sulfate]
> 64 µg/mL: all assays above

CC(=O)NCCC(=O)NC(=N)[C@@H]1CC[C@@H]2CN1C(=O)N2OS(=O)(=O)[O-].[Na+] [Ex.19, Sodium (2S,5R)-2-(N-(3-acetamidopropanoyl)carbamimidoyl)-7-oxo-1,6-diazabicyclo[3.2.1]octan-6-yl Sulfate]
> 64 µg/mL: all assays above

N=C(N)NOCCC(=O)NC(=N)[C@@H]1CC[C@@H]2CN1C(=O)N2OS(=O)(=O)O [Ex.43, (2S,5R)-2-(N-(3-(guanidinooxy)propanoyl)carbamimidoyl)-7-oxo-1,6-diazabicyclo[3.2.1]octan-6-yl Hydrogen Sulfate]
> 64 µg/mL: all assays above

CC(=O)N1CC[C@H](C(=O)NC(=N)[C@@H]2CC[C@@H]3CN2C(=O)N3OS(=O)(=O)[O-])C1.[Na+] [Ex.30, Sodium (2S,5R)-2-(N-((S)-1-acetylpyrrolidine-3-carbonyl)carbamimidoyl)-7-oxo-1,6-diazabicyclo[3.2.1]octan-6-yl Sulfate]
> 64 µg/mL: all assays above

N=C(NC(=O)Cn1ccnc1)[C@@H]1CC[C@@H]2CN1C(=O)N2OS(=O)(=O)[O-].[Na+] [Ex.39, Sodium (2S,5R)-2-(N-(2-(1H-imidazol-1-yl)acetyl)carbamimidoyl)-7-oxo-1,6-diazabicyclo[3.2.1]octan-6-yl Sulfate]
> 64 µg/mL: all assays above
